Active and inactive are the calls of the source.
Assays:
Bcl-2-related protein A1 = molecular target: T1, Bcl-2-related protein A1 (Mus musculus, UniProt Q07440); assay type: functional;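 further: confirmatory dose–response counterscreen on Bfl-1, used to check hits from a UBC13 polyubiquitin inhibitor campaign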
T1 sequence (Q07440 whole entry): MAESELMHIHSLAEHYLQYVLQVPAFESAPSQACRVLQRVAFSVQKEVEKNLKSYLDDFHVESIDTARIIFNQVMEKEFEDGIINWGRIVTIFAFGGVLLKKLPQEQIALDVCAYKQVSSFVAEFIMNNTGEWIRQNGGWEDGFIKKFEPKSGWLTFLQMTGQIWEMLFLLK

[1] = molecular target: T2, Ubiquitin-conjugating enzyme E2 N (Homo sapiens, UniProt P61088); assay type: functional
T2 sequence (P61088 whole entry): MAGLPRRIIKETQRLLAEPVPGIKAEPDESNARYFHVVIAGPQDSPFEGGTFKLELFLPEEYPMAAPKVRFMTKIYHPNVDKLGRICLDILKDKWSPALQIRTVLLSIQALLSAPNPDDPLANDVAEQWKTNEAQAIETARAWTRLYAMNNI

[2] = inhibitors of firefly luciferase expression or activity, dose response, H4 neuroglioma cells, luminescence (AID 1990); assay type: functional, cell-based
HT-1080 = test: cytotoxicity in HT1080 fibrosarcoma cells, cell-based, fluorescence readout (AID 620); assay type: functional; settings: Homo sapiens
[3] = inhibitors of SNCA 5'UTR-driven reporter translation, confirmation, H4 neuroglioma cells, luminescence (AID 1988); assay type: functional, cell-based
[4] = molecular target: T2, Ubiquitin-conjugating enzyme E2 N; assay type: functional; remark: listed apart in the source
[5] = molecular target: Luciferin 4-monooxygenase (Photinus pyralis, UniProt P08659); test: Counter Screen for Luciferase-based Assay Positives. [Related pubchem assays: 620, 618, 411 ]
[6] = Luminescence Cell-Based Dose Response HTS to Identify Inhibitors of 5'UTR Stem-Loop Driven Prion Protein mRNA Translation in H4 Neuroglioblastoma Cells. [Related pubchem assays: 1827 (Project Summary), 1813 (Primary HTS)]; assay type: functional
[7] = molecular target: T3, Voltage-gated N-type calcium channel alpha-1B subunit/Amyloid beta A4 precursor protein-binding family A member 1 (Homo sapiens, UniProt Q00975+Q02410); assay type: protein assay
[8] = molecular target: T3, Voltage-gated N-type calcium channel alpha-1B subunit/Amyloid beta A4 precursor protein-binding family A member 1; assay type: protein assay; remark: listed apart in the source
[9] = molecular target: T4, Rac GTPase-activating protein 1 (Homo sapiens, UniProt Q9H0H5); test: MgcRacGAP GTPase-activating activity inhibitors, confirmation, biochemical, ADP Hunter fluorescence, primary and confirmatory (AID 624330); assay type: functional
T4 sequence (Q9H0H5 whole entry): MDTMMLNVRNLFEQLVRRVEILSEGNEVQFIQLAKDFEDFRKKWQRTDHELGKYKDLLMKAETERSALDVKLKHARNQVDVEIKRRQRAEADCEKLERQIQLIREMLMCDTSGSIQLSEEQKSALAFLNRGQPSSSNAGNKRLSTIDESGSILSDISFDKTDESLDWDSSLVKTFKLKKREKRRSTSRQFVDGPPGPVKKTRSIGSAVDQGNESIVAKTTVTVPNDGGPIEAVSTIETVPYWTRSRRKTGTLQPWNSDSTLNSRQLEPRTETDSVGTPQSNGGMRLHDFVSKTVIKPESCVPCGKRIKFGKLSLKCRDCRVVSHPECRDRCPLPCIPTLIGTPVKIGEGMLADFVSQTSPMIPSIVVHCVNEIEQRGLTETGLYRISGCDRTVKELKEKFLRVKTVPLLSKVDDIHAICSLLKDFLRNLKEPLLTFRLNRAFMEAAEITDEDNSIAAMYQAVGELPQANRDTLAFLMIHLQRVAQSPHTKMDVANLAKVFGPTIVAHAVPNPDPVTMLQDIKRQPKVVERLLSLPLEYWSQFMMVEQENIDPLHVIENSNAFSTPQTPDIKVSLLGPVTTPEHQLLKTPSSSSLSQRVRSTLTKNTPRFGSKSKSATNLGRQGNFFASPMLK

[10] = Luminescence Cell-Based Dose Retest to Confirm Inhibitors of Cancer Stem Cells. [Related pubchem assays (depositor defined):AID2717, AID2721]; assay type: functional; settings: Homo sapiens
BJ [11] = test: cytotoxicity toward Ras-transformed BJeLR fibroblasts, dose response, cell-based, alamar blue fluorescence, cherrypicked samples (AID 2631); assay type: functional; settings: Homo sapiens;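 further: confirmatory dose-response assay in RAS-dependent BJ fibroblasts engineered with TERT, LT and ST, with cytotoxicity read by fluorescence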
[12] = cytotoxicity in HMLE control line with eGFP shRNA, dose response, counter-screen for HMLE_sh_ECad selective toxicity project, cell-based, HMLE_sh_eGFP, luminescence (AID 463074); assay type: functional, Homo sapiens;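 further: HMLE human mammary epithelial cells expressing control shRNA against eGFP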
BJ [13] = test: cytotoxicity toward BJ-TERT fibroblasts, dose response, cell-based, RAS-independent, luminescence (AID 1933); assay type: functional; settings: Homo sapiens
[14] = cytotoxicity toward DRD oncogenic fibroblasts, dose response, cell-based, non-viral oncogenic, luminescence (AID 1934); assay type: functional; settings: Homo sapiens
BJ [15] = test: cells; assay type: functional, cell-based; settings: Homo sapiens
INS1 = test: beta cell apoptosis inhibitors, cytokine rescue, dose response, luminescence, retest (AID 449756); assay type: functional, cell-based; settings: Rattus norvegicus;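 further: cell death triggered by IL-1 beta plus TNF-alpha plus IFN-gamma mixture; protective hits raise ATP signal compared with cytokine alone wells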
[16] = microbe, parasite or virus in culture; assay type: functional; settings: Mycobacterium tuberculosis
Paired box protein Pax-8 = Paired box protein Pax-8 (Homo sapiens, UniProt Q06710); test: inhibitors of PAX8-driven TPO luciferase reporter, dose response, RMG-I cells, cherry-pick (AID 687027); assay type: functional, cell-based;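 further: luciferase reporter driven by Pax8 target thyroperoxidase promoter measured by SteadyGlo luminescence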
BJ [17] = test: cytotoxicity toward BJ-TERT-LT-ST fibroblasts, dose response, cell-based, RAS-independent, luminescence (AID 1935); assay type: functional; settings: Homo sapiens;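 further: BJ fibroblasts immortalized with TERT plus LT and ST oncogenes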
HeLa = test: HeLa cell cytotoxicity, dose response, cytotoxicity control for MITF activator project, CellTiter-Glo luminescence, cherry-pick samples (AID 540259); assay type: functional, cell-based; settings: Homo sapiens
Cytochrome P450 3A4 = Cytochrome P450 3A4 (Homo sapiens, UniProt P08684);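 further: CYP3A4 tested as one member of a cytochrome P450 panel screen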
[18] = molecular target: T5, Microphthalmia-associated transcription factor (Homo sapiens, UniProt O75030); test: TRPM1 promoter luciferase signal decrease, dose response, MITF inhibitor project, cell-based, SK-MEL-5, cherry-picked, set 3 (AID 493073); assay type: functional
T5 sequence (O75030 whole entry): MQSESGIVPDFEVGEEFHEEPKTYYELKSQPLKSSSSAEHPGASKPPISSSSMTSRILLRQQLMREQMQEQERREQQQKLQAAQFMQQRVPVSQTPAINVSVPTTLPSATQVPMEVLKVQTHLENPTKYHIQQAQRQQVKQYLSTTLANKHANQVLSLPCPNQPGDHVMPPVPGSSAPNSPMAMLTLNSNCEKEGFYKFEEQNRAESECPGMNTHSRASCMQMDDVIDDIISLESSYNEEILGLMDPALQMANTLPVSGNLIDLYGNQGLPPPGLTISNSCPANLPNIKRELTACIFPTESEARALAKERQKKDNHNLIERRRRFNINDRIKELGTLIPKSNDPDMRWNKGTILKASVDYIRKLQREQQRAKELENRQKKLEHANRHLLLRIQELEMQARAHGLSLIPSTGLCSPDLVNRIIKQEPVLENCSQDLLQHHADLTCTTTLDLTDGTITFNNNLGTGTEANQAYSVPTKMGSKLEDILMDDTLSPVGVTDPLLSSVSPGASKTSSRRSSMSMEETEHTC

[19] = inhibitors of SNCA 5'UTR-driven translation, confirmation, luminescence, H4 neuroglioblastoma cells, dose confirmation (AID 2454); assay type: functional, cell-based;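 further: H4 neuroglioblastoma cells carrying an alpha-synuclein 5'UTR luciferase reporter; potency for inhibition of the luciferase signal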
cells [20] = assay type: functional, cell-based
[21] = luciferase reporter signal reduction – luminescence, H4-C neuroglioblastoma cells, dose response (AID 2458); assay type: functional, cell-based;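 further: H4 neuroglioblastoma cells stably carrying a luciferase reporter gene fusion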
[22] = insulin promoter down-regulators in MIN6 cells, imaging, high-content screening, mouse beta cells (AID 1628); assay type: functional
[23] = cytotoxicity in MIN6 insulinoma cells, dose response, cytotoxicity control, cell-based, mouse insulinoma (AID 2122); assay type: functional;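 further: confirmatory high-throughput counterscreen run to flag cytotoxic compounds; mouse MIN-6 beta cells carrying an insulin promoter eGFP reporter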
[24] = Vero E6 cell cytotoxicity, dose response, cytotoxicity control for non-replicating M. tuberculosis project, secondary assay (AID 492998); assay type: functional, VeroE6; settings: Vero C1008
[25] = THP-1 cell cytotoxicity, dose response, cytotoxicity control for non-replicating M. tuberculosis project (AID 489025); assay type: functional
[26] = HepG2 cell cytotoxicity, dose response, cytotoxicity control for non-replicating M. tuberculosis project (AID 489018); assay type: functional; settings: Mycobacterium tuberculosis
cells [27] = assay type: functional
[28] = cytotoxicity in HPDE-C7 cells, cell-based, fluorescence, HTS (AID 430); assay type: functional; settings: Homo sapiens
[29] = cytotoxicity in KRAS-transformed pancreatic duct cells, primary screen, cell-based, fluorescence, HTS (AID 431); assay type: functional; settings: Homo sapiens;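 further: cell line used: HPDE-C7K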
[30] = Shn3 3'UTR reporter inhibitors, dose response, cell-based, Clone20 osteoblasts, firefly luciferase, cherry-picked (AID 624132); assay type: functional;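 further: firefly luciferase luminescence from reporter carrying the Shn3 3'UTR in osteoblasts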
[31] = control 3'UTR Renilla luciferase suppression, dose response, counter-screen for Shn3 inhibitor project, cell-based, Clone20-Shn3RL, cherry-picked (AID 624133); assay type: functional
[32] = HepG2 cell cytotoxicity, dose response, cytotoxicity control for Shn3 inhibitor project, CellTiter-Glo, cherry-picked (AID 624134); assay type: functional, cell-based

Cytochrome P450 3A4, sequence (P08684 whole entry): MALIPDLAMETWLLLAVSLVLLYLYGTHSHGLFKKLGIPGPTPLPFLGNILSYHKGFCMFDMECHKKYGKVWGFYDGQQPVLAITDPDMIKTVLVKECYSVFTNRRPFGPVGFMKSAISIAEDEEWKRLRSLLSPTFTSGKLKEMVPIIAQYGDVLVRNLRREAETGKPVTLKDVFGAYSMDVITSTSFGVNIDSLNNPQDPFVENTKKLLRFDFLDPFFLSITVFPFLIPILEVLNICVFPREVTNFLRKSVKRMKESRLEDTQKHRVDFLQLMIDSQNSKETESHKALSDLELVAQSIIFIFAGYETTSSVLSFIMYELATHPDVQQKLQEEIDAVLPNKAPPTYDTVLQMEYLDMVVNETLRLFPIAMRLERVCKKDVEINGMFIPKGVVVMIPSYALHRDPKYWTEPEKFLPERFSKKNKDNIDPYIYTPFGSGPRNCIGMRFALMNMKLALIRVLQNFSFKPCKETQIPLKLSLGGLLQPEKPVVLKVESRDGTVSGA
T3 sequence (Q00975 whole entry): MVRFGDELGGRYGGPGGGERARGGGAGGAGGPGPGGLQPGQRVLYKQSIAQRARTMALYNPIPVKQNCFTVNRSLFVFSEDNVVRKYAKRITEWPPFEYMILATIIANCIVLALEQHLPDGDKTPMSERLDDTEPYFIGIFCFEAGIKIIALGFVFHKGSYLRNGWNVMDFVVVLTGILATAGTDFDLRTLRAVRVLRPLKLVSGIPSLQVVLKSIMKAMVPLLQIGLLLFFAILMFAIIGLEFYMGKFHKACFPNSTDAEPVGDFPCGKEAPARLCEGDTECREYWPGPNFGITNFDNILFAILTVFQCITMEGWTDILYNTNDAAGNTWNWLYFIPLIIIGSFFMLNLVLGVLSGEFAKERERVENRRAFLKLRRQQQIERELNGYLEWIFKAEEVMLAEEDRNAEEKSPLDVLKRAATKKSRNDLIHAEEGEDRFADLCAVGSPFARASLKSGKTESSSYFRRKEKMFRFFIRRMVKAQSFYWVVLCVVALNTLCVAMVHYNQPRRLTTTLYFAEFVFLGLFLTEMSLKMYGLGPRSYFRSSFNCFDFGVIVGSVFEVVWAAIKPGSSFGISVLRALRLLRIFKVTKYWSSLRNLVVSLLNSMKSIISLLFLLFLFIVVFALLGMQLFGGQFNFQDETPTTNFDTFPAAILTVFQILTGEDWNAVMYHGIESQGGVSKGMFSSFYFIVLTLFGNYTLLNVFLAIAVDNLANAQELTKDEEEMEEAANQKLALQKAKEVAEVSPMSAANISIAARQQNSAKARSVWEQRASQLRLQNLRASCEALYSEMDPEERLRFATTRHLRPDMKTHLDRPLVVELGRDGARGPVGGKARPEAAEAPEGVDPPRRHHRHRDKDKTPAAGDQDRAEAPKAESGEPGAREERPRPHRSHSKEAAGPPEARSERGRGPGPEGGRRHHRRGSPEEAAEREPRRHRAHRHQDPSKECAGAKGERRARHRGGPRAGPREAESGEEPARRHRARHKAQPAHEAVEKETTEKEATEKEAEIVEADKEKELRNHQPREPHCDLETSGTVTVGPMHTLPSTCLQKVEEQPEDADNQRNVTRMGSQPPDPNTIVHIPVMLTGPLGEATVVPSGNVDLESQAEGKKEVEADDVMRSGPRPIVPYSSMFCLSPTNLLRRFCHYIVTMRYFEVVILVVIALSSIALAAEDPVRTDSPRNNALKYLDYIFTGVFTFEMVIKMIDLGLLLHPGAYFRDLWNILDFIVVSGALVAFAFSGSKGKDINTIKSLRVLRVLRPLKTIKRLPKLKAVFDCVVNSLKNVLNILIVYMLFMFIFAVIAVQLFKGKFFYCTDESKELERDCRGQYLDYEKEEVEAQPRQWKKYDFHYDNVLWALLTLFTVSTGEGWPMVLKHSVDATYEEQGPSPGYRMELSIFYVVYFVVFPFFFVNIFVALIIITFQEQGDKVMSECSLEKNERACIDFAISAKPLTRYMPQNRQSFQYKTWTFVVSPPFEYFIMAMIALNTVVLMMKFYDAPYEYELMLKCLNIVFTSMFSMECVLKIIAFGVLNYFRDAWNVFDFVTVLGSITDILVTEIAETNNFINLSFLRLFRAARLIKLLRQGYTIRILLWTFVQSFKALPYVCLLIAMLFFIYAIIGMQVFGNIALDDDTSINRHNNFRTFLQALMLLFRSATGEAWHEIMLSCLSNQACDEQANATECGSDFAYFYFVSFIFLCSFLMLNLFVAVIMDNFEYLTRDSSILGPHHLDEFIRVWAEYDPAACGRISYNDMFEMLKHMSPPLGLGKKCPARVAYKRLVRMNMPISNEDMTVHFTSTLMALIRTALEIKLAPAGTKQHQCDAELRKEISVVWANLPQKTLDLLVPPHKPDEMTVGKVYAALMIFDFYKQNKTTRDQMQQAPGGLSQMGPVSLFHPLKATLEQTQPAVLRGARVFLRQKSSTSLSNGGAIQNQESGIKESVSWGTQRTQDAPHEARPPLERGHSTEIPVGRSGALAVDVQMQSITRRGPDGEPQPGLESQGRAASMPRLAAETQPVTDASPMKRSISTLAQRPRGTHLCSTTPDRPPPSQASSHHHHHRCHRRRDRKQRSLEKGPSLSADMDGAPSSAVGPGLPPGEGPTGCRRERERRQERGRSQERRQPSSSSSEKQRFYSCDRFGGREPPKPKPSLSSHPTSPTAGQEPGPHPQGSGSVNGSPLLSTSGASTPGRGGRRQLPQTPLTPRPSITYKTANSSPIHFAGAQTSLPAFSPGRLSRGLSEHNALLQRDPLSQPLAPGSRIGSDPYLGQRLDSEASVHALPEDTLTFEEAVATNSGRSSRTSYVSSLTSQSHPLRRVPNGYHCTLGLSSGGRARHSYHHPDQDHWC
T3 sequence (Q02410 whole entry): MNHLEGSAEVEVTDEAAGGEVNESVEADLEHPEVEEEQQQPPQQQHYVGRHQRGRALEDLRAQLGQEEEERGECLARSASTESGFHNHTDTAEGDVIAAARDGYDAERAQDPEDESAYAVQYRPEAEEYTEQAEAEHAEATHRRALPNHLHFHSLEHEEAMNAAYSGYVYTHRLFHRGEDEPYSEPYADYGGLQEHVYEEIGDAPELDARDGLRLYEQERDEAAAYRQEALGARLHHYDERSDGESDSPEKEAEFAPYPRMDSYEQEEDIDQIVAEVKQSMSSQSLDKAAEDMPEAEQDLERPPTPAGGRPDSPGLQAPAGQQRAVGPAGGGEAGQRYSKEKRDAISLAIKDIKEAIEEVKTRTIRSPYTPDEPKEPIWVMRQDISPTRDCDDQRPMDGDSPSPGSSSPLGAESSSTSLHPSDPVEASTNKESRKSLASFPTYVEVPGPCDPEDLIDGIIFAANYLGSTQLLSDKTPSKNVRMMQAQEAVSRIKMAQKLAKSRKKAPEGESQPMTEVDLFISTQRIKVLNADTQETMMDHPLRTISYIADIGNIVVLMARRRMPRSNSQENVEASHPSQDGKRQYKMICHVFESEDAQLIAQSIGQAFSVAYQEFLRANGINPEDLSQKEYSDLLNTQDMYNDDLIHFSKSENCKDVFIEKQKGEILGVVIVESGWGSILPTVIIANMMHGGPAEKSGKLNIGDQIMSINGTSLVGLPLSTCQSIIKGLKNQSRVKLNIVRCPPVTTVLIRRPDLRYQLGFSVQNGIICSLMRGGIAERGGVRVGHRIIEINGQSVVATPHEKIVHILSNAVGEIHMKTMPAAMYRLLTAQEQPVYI
Paired box protein Pax-8, sequence (Q06710 whole entry): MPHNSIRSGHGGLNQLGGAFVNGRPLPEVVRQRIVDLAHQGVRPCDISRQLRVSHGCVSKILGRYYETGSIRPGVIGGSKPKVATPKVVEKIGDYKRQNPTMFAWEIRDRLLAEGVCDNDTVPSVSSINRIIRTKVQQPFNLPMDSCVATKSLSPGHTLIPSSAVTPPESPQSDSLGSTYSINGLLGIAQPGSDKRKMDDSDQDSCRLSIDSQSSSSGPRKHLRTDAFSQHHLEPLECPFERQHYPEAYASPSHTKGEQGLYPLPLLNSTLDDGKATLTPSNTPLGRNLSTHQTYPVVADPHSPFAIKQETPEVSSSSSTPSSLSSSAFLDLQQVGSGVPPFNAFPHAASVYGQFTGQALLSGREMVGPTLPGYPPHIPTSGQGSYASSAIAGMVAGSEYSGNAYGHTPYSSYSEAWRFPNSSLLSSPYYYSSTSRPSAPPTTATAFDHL
Luciferin 4-monooxygenase, sequence (P08659 whole entry): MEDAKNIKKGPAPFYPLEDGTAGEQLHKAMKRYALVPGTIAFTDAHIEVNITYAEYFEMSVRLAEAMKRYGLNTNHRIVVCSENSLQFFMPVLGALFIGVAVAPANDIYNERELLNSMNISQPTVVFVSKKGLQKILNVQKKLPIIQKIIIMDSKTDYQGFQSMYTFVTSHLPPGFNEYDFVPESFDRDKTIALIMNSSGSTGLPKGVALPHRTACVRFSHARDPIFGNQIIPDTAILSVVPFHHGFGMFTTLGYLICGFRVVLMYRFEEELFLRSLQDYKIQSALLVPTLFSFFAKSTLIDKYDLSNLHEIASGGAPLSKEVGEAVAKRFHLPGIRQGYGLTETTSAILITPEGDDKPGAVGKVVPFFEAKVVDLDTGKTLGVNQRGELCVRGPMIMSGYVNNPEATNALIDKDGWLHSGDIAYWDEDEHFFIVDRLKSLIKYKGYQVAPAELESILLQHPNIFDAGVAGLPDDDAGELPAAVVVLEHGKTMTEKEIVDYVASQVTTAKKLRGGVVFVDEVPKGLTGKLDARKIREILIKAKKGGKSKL

## COc1ccc(C(=O)Nn2c(SCC(=O)NCc3ccccc3)nc3ccccc3c2=O)cc1
Bcl-2-related protein A1
  IC50: > 20 µM (inactive)
[1]
  IC50: > 20 µM (inactive)
[2]
  EC50: 9.49 µM (active)
HT-1080
  EC50: > 50 µM (not active)
[3]
  EC50: 0.403 µM (inconclusive)
[4]
  IC50: 19.4 µM (active)
[5]
  EC50: 2.51 µM (active)
[6]
  EC50: 9.71 µM (active)

## CCC(=O)Nc1ccc(Nc2nc(Cl)nc(Nc3ccc(NC(=O)CC)cc3)n2)cc1
[7]
  IC50: 12.8 µM (active)
[8]
  IC50: > 50 µM (inactive)

## C#CCOCCOCCOCCNc1nc(N2CCN(C(=O)[C@H](CCCCN)n3cc([C@@H](N)CC(C)C)nn3)CC2)nc(N2CCN(C(=O)[C@H](CCCCN)n3cc([C@@H](N)CC(C)C)nn3)CC2)n1
Bcl-2-related protein A1
  IC50: > 20 µM (inactive)
[1]
  IC50: 14 µM (active)
[9]
  IC50: 190 µM (active)
[4]
  IC50: 14.4 µM (active)

## CCCCn1cnc2c(c(-c3ccccc3)c(-c3ccccc3)n2Cc2ccco2)c1=N
[10]
  AC50: 49.8 µM (active)
BJ [11]
  EC50: 76.5 µM (active)
[12]
  AC50: 50.9 µM (active)
BJ [13]
  EC50: 7.71 µM (active)
[14]
  EC50: 9.06 µM (active)
BJ [15]
  EC50: 36.1 µM (active)
INS1
  AC50: > 260 µM (inactive)
[16]
  CC50: > 40 µM (active)
Paired box protein Pax-8
  AC50: 9.7 µM (active)
BJ [17]
  EC50: 11.1 µM (inconclusive)

## Nc1ccc(O)c2c(=O)cc(-c3ccccc3Cl)oc12
HeLa
  AC50: 79.6 µM (active)

## O=C(Cc1cccc2ccccc12)N/N=C/c1ccc(Sc2nc3ccccc3s2)o1
Cytochrome P450 3A4
  AC50: inconclusive

## COc1cc2c(c(OC)c1OC)-c1ccc(N(C)CC(OC)OC)c(=O)cc1[C@@H](NC(C)=O)CC2
BJ [11]
  EC50: 0.117 µM (active)
[18]
  AC50: 2.04 µM (active)
[19]
  EC50: 1.22 µM (active)
BJ [13]
  EC50: 2.59 µM (inconclusive)
Cells [20]
  EC50: > 12 µM (not active)
[14]
  EC50: 2.35 µM (active)
[21]
  EC50: > 12 µM (not active)
[3]
  EC50: < 0.1 µM (active)
BJ [15]
  EC50: 3.06 µM (active)
[6]
  EC50: 8.84 µM (active)
BJ [17]
  EC50: 20 µM (inconclusive)

## COc1ccc(-c2c3c(nc4sc5c(O)nc(C)nc5c24)CCC3)cc1
[22]
  IC50: 0.847 µM (active)
[23]
  IC50: > 16 µM (inactive)

## CCOc1ccc(N(C(=O)c2snc(C(N)=O)c2N)C(C(=O)NCC2CCCO2)c2c[nH]c3ccccc23)cc1 (centres undefined)
Bcl-2-related protein A1
  IC50: > 20 µM (inactive)
[1]
  IC50: 5.73 µM (active)
[4]
  IC50: 11.1 µM (active)

## COC(=O)c1ccc(C(=O)NC2CC(C)(C)Cc3c2cnn3-c2ccc(F)cc2)nc1 (centres undefined)
[24]
  CC50: 12.2 µM (active)
[25]
  CC50: 16.8 µM (active)
[26]
  CC50: > 20 µM (active)
Cells [27]
  IC50: 6.8 µM (active)

## CCN(CC)S(=O)(=O)c1cccc(C(=O)N/N=C(\C)c2cccs2)c1
HeLa
  AC50: 50.9 µM (active)

## CC1CCN(c2ccc(/C=N/n3nnnc3N)cc2[N+](=O)[O-])CC1
Cytochrome P450 3A4
  AC50: inconclusive

## O=C1CSC(=S)N1Cc1cccnc1
[24]
  CC50: 4.93 µM (active)
[25]
  CC50: 3.69 µM (active)
BJ [13]
  EC50: 5.09 µM (active)
[14]
  EC50: 9.9 µM (active)
[28]
  EC50: 5.21 µM (active)
BJ [15]
  EC50: 21.1 µM (active)
Cells [27]
  IC50: 13.2 µM (active)
[29]
  EC50: 3.72 µM (active)
BJ [17]
  EC50: > 150 µM (inconclusive)

## CC(CCCC(C)(C)O)NC(=O)c1cc(COc2ccc3ncccc3c2)on1 (centres undefined)
[30]
  AC50: 1.75 µM (active)
[31]
  AC50: 1.06 µM (active)
[22]
  IC50: 1.96 µM (active)
[23]
  IC50: 1.48 µM (active)
INS1
  AC50: 4.37 µM (active)
[32]
  AC50: 3.65 µM (active)

## Cc1s/c(=N\C(=O)c2ccco2)n(C)c1-c1ccccc1
Cytochrome P450 3A4
  AC50: inconclusive

From ChEMBL document CHEMBL1201862, “PubChem BioAssay data set” (2004)
